Measured values as given in patent US4634702A, “Quinoxalinemethanol compounds for combatting swine dysentery and as growth promoting factors, method of preparation, and compositions containing them” (priority 1983, dated 1987).
Converted amounts (≈) assume the structure as drawn.

Key:
Treponema hyodysenteriae = assay: in vitro minimum inhibitory concentration / activity against Treponema hyodysenteriae; type: cell-based
Description: Compound G 8 has been tested "in vitro" against Treponema hyodysenteriae by a known technique. The minimum inhibitory concentration (the lowest concentration of compound in a dilution series where growth is inhibited) was 0.1 μg/ml.

[1] = Acute toxicity of G 8 in female mice; type: in vivo, mouse
Description: (§1) Furthermore, G8 compound was tested for acute toxicity by several modes of administration in four species, namely mouse, rat, guinea pig and rabbit. […] The test results are given below in tables 1, 2, 3 and 4.
Acute toxicity of G 8 in female mice

[2] = Acute Toxicity of G 8 in the Rat; type: in vivo; settings: for Dead/Treated within 21 days / Body Weight (m ± SEM), Termination: first experiment
Description: as §1
Acute Toxicity of G 8 in the Rat

[3] = Acute toxicity of G 8 in the guinea pig by oral administration; type: in vivo
Description: as §1
Acute toxicity of G 8 in the guinea pig by oral administration

[4] = Acute toxicity of G 8 in the rabbit by esophageal administration; type: in vivo
Description: as §1
Acute toxicity of G 8 in the rabbit by esophageal administration

[5] = Subacute toxicity of G 8 in the mouse; type: in vivo; settings: for SGPT / SGOT: 1 g/kg/day, 24 hrs. after last dose
Description: (§2) In view of the favorable acute toxicity data, compound G 8 was administered orally in sub-acute, but relatively large doses, to mice and rats for 15 days.
Subacute toxicity of G 8 in the mouse
Daily dose: 500 mg. G 8 by gastric gavage for 15 days
Daily dose: 1 g/kg/day for 15 days
b. SGOT and SGPT (24 hrs. after last dose)

[6] = Subacute toxicity of G 8 in female rats; type: in vivo, rat; settings: 2 g/kg/day, gastric gavage, 21 days
Description: as §2
Subacute toxicity of G 8 in female rats
Daily dose: […] of G 8 in female rats by gastric
Daily dose: 2 g/kg/day of G 8 by gastric gavage for 21 days

[7] = Chronic toxicity in female mice; type: in vivo
From the text: Chronic toxicity has been studied in female mice.

[8] = teratogenetic study with male and female mice and rats; type: in vivo
Description: Furthermore, teratogenetic study was conducted with male and female mice and rats.

swine dysentery = swine dysentery in swine herd fed G 8 in rations; type: in vivo; settings: 400 g/ton in rations, herd with dysentery
Description: Compound G 8 is mixed with swine feed rations at a level of 200 g/ton and was fed to swine housed in an area where there has been a previous outbreak of swine dysentery. Another herd was housed in a similar area, where there has been a previous outbreak of dysentery. They were fed the same rations as the first herd, but with no G 8 or other drug.
Many members of the herd developed symptoms of dysentery. G 8 was then added with the rations at a level of 400 g/ton.

[9] = growth promotion in baby-swines fed G 8 in rations; type: in vivo, swine
Description: The effect of compound G 8 was tested in feed rations for baby-swines.
Compound G 8 was added at a dosage level of 100 g/ton of feed. Five replicate groups of 10 animals (5 males and 5 females), age one day, were fed the ration containing G 8 and compared to 5 replicate groups of animals (5 males and 5 females) which received the same ration but without G 8.
The test period was 28 days.

[10] = acute toxicity by several modes of administration in four species (overall); type: in vivo, guinea pig and rabbit; settings: mouse, rat, guinea pig, rabbit
Description: as §1

With `COc1ccc(O)c(C(O)c2c[n+]([O-])c3ccccc3[n+]2[O-])c1` (centres unmarked) [G 8, quinoxalyl-N^1,N^4-dioxide-2-hydroxy-5-methoxy-phenylcarbinol] the “action against Treponema hyodysenteriae (specificity)” value (Treponema hyodysenteriae) was “clearly specific action against Treponema hyodysenteriae”, the MIC (Treponema hyodysenteriae; Brachyspira hyodysenteriae, read-out: minimum inhibitory concentration) was 0.1 µg/mL (≈ 0.318 µM) and the Dead/Treated animals ([1]; endoperitoneal, 250 mg/kg, after 7 days) was 0/18. For the same molecule, the Dead/Treated animals ([1]; endoperitoneal, 500 mg/kg, after 7 days) was 6/12, the Dead/Treated animals ([1]; endoperitoneal, 1000 mg/kg, after 2 days) was 6/6 and the Dead/Treated animals ([1]; endoperitoneal, 1000 mg/kg, after 7 days) was 6/6. The Dead/Treated animals ([1]; endoperitoneal, 2000 mg/kg, after 1 day) was 6/6, the Dead/Treated animals ([1]; endoperitoneal, 2000 mg/kg, after 7 days) was 6/6 and the Dead/Treated animals ([1]; oral, 1000 mg/kg, after 7 days) was 0/12. For the same molecule, the Dead/Treated animals ([1]; oral, 2000 mg/kg, after 7 days) was 0/12, the Dead/Treated animals ([1]; oral, 4000 mg/kg, after 4 days) was 1/12 and the Dead/Treated animals ([1]; oral, 4000 mg/kg, after 7 days) was 1/12. The “Dead/Treated within 7 days” value ([2]; cumulative data regardless of animal sex, intraperitoneal, 500 mg/kg) was 4/16, the “Dead/Treated within 7 days” value ([2]; cumulative data regardless of animal sex, oral, 4000 mg/kg) was 0/16 and the “Dead/Treated within 21 days” value ([2]; female, endoperitoneal, 500 mg/kg) was 2/4. For the same molecule, the “Dead/Treated within 21 days” value ([2]; female, oral, 4000 mg/kg) was 0/4, the “Body Weight (m ± SEM), Termination” value ([2]; female, oral, 4000 mg/kg, start 201.2 ± 4.2, vehicle 189.2 ± 3.9 to 230.0 ± 10.5) was 238.2 ± 12.1 g and the “Dead/Treated within 21 days” value ([2]; male, endoperitoneal, 500 mg/kg) was 1/4. The “Body Weight (m ± SEM), Termination” value ([2]; male, endoperitoneal, 500 mg/kg, start 234.0 ± 6.2, vehicle 230.0 ± 5.7 to 324.0 ± 8.7) was 314.3 ± 10.3 g, the “Dead/Treated within 21 days” value ([2]; male, oral, 4000 mg/kg) was 0/4 and the “Body Weight (m ± SEM), Termination” value ([2]; male, oral, 4000 mg/kg, start 234.5 ± 13.8, vehicle 233.7 ± 3.7 to 331.0 ± 0.5) was 288.7 ± 13.8 g. The “Dead/Treated within 7 days” value ([2]; second experiment, female, intraperitoneal, 500 mg/kg) was 0/4, the “Body weight (±SE), Termination” value ([2]; second experiment, female, intraperitoneal, 500 mg/kg, start 232.5 ± 5.9) was 218.2 ± 7.0 g and the “Dead/Treated within 7 days” value ([2]; second experiment, female, oral, 4000 mg/kg) was 0/4. The “Body weight (±SE), Termination” value ([2]; second experiment, female, oral, 4000 mg/kg, start 252.0 ± 16.6) was 253.5 ± 12.1 g, the “Dead/Treated within 7 days” value ([2]; second experiment, male, intraperitoneal, 500 mg/kg) was 2/4 and the “Dead/Treated within 7 days” value ([2]; second experiment, male, oral, 4000 mg/kg) was 0/4. For the same molecule, the “Body weight (±SE), Termination” value ([2]; second experiment, male, oral, 4000 mg/kg, start 222.5 ± 6.2) was 231.7 ± 15.7 g, the “Dead/Treated within 21 days” value ([3]; 500 mg/kg) was 0/4 and the “Dead/Treated within 21 days” value ([3]; 1000 mg/kg) was 1/4. For the same molecule, the “Dead/Treated within 21 days” value ([3]; 2000 mg/kg) was 5/6, the “Dead/Treated within 21 days” value ([3]; 4000 mg/kg) was 6/6 and the “Dead/Treated within 7 days” value ([4]; 500 mg/kg) was 0/2. For the same molecule, the “Dead/Treated within 7 days” value ([4]; 1000 mg/kg) was 0/4, the “Body weight (m ± SE), Termination” value ([4]; 1000 mg/kg, start 2037 ± 104.3, vehicle 2135 ± 75 to 2262 ± 215) was 1922.5 ± 71.5 g and the “Dead/Treated within 7 days” value ([4]; 2000 mg/kg) was 0/2. For the same molecule, the “Body weight, Termination” value ([4]; 2000 mg/kg, start 2250-2150) was 2180 + 2140 g, the Dead/Treated ([5]; 500 mg/kg/day, gastric gavage, 15 days) was 0/10 and the “Fresh organ to body weight ratio, Kidneys” value ([5]; 500 mg/kg/day, gastric gavage, 15 days, vehicle 1.4 ± 0.1) was 1.5 ± 0.1. For the same molecule, the “Fresh organ to body weight ratio, Liver” value ([5]; 500 mg/kg/day, gastric gavage, 15 days, vehicle 5.2 ± 0.2) was 5.9 ± 0.3, the “% Body weight change (m ± SE)” value ([5]; 500 mg/kg/day, gastric gavage, 15 days, vehicle 20.4 ± 4.2) was -8.1 ± 3.9% and the Dead/Treated ([5]; 1 g/kg/day for 15 days, oral, in adraganth gum) was 3/12. For the same molecule, the “% Body weight change” value ([5]; 1 g/kg/day for 15 days, oral, in adraganth gum, vehicle 25.04 ± 1.18) was 16.27 ± 1.31%, the Dead/Treated ([5]; 1 g/kg/day for 15 days, oral, in water) was 2/12 and the “% Body weight change” value ([5]; 1 g/kg/day for 15 days, oral, in water, vehicle 24.54 ± 0.64) was 18.5 ± 0.75%. The SGPT ([5]; oral, in adraganth gum, vehicle 6) was 10 Units/ml, the SGOT ([5]; oral, in adraganth gum, vehicle 119) was 132 Units/ml and the SGPT ([5]; oral, in water, vehicle 4) was 9 Units/ml. The SGOT ([5]; oral, in water, vehicle 116) was 124 Units/ml, the “Average percent weight of fresh organs (m ± SE), Lung” value ([6]; 5 animals, NS, vehicle 0.85 ± 0.06) was 1.08 ± 0.09% and the “Average percent weight of fresh organs (m ± SE), Kidneys” value ([6]; 5 animals, NS, vehicle 0.95 ± 0.04) was 1.04 ± 0.3%. For the same molecule, the “Average percent weight of fresh organs (m ± SE), Liver” value ([6]; 5 animals, vehicle 3.45 ± 0.07) was 4.54 ± 0.10%, the Dead/Treated ([6]; death caused by a mistake in esophagus incannulation) was 1/6 and the “Body weight in g (m ± SE), Termination” value ([6]; start 204.1 ± 2.0, vehicle 200.0 ± 4.1 to 233.2 ± 5.1) was 210.6 ± 9.6 g. The Chronic toxicity [7] was “very satisfactory”, the malformations [8] was “No malformations in either group were observed” and the “number of young delivered live at birth” value [8] was “comparable with controls”. For the same molecule, the “dysentery symptoms of diseased members” value (swine dysentery) was “the diseased members became free from dysentery symptoms”, the “spread of the disease” value (swine dysentery) was “The spread of the disease was halted” and the “Improvement, % (body weight gain)” value ([9]; 100 g/ton of feed, 28 days, combined average vs ration without G 8) was 3.1%. For the same molecule, the “Improvement, % (feed/gain ratio)” value ([9]; 100 g/ton of feed, 28 days, vs ration without G 8) was 2.8%, the Feed/gain ratio ([9]; 100 g/ton of feed, 28 days, without G 8: 1.82) was 1.77 and the “Body weight gain/swine, Females” value ([9]; 100 g/ton of feed, 28 days, without G 8: 5740 g) was 5880 g. For the same molecule, the “Body weight gain/swine, Combined average” value ([9]; 100 g/ton of feed, 28 days, without G 8: 6000) was 6190, the “Body weight gain/swine, Males” value ([9]; 100 g/ton of feed, 28 days, without G 8: 6150 g) was 6480 g and the growth promoting action ([9]; qualitative statement) was “effective growth promoting factor”. For the same molecule, the “order of acute toxicity” value [10] was “low order toxicity” and the “order of acute toxicity” value ([10]; listed as G8) was “low order of toxicity”.
